The values that follow come from paper PMC4131897 (Biochemistry, 2014).

Changes are numbered by the printed parent chain.

Holding throughout (type): binding
The target in test [1] is T1, BjPutA (proline utilization A) (Bradyrhizobium diazoefficiens, UniProt Q89E26, D779Y).
T1 sequence (Q89E26 1-999 D779Y): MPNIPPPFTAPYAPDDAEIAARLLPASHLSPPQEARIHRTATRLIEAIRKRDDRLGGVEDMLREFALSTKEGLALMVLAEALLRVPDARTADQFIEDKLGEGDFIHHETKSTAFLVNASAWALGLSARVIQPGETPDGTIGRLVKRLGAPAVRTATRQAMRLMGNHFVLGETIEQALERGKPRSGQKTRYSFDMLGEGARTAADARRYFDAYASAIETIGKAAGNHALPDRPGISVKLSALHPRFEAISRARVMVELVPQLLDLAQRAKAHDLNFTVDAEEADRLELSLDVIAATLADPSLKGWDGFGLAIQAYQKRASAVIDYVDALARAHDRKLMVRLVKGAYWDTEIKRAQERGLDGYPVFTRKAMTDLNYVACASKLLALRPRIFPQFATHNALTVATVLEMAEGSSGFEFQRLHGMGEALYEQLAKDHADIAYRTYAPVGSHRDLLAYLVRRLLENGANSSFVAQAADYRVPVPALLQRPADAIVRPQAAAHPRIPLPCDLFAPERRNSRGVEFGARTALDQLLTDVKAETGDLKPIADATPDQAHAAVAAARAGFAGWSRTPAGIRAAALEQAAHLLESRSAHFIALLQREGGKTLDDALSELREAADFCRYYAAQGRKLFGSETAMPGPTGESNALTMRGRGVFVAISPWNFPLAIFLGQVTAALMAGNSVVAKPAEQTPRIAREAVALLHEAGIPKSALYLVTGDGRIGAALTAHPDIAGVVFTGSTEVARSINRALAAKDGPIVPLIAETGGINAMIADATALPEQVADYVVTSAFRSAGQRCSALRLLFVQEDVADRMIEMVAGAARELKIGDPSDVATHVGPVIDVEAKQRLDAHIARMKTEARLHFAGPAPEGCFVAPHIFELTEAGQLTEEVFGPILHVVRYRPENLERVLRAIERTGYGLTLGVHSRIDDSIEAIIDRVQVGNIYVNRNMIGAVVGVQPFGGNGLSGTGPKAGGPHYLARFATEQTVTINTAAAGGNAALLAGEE
The test is described as follows: intrinsic tryptophan fluorescence quenching.

Test [2] concerns the target T2, BjPutA (proline utilization A) (Bradyrhizobium diazoefficiens, UniProt Q89E26).
T2 sequence (Q89E26 1-999): T1 sequence (Q89E26 1-999 D779Y) with Y779D
Description: intrinsic tryptophan fluorescence quenching, single-site fit.

The target of test [3] is T3, BjPutA (proline utilization A) (Bradyrhizobium diazoefficiens, UniProt Q89E26, S607Y).
T3 sequence (Q89E26 1-999 S607Y): T1 sequence (Q89E26 1-999 D779Y) with S607Y, Y779D
Description: intrinsic tryptophan fluorescence quenching.

With `NC(=O)c1ccc[n+]([C@@H]2O[C@H](COP(=O)(O)OP(=O)(O)OC[C@H]3O[C@@H](n4cnc5c(N)ncnc54)[C@H](O)[C@@H]3O)[C@@H](O)[C@H]2O)c1` [NAD^+], the Kd in test [1] came to 0.65 ± 0.04 µM; in test [2] it was 0.6 ± 0.04 µM; in test [3] it was 1 ± 0.04 µM.
